The values that follow come from patent US20220169654A1, “New Organic Compounds” (Servier Pharmaceuticals LLC, priority 2020, published 2022).

Where only a bound is given, the exact number is not on record here.

The target of one assay is T1, MAT2A homodimer (Homo sapiens, UniProt P31153).
T1 construct: inferred from Ni sepharose purification with imidazole elution; made in house; host or cells: Sf9 insect cells, baculovirus (Bac to Bac, pFASTBAC1)
In words: MAT2A inhibition (biochemical, liberated phosphate, PiColorLock Gold). The following applies: recombinant MAT2A homodimer; IC50 bin with Max Inh.; read-out: Enzyme Inhibition Bin. A digest of the protocol: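 Enzyme at 4 μg/mL and compound equilibrated 60 min at 25 °C, then 60 min reaction after adding substrate mix (500 μM ATP, 400 μM methionine). Released phosphate quantified by colorimetric kit against a phosphate standard curve to give IC50. Secondary format used 1 μg/mL enzyme with 5 h incubation.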

For assay [1], the system named is SAM in HCT116 human colon carcinoma cell line with MTAP gene deleted (MTAP −/−). In words: Cellular assay of target engagement (SAM), LC-MS/MS, 72 hrs. Format: cell-based. The following applies: HCT-116, IC50 bin with Max Inh., read-out: Cell 72 h SAM Inhibition (MTAP −/−). A digest of the protocol:
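SAM levels were quantified by LC-MS/MS (m/z 399.2→250.1, d3-SAM internal standard) from cold methanol/acetic acid extracts, yielding IC50. Compound was applied as a 10-point 3-fold series for 72 hrs to MTAP −/− HCT116 cells seeded 24 hours before.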

The next assay deals with HCT116 MTAP−/−. Description: Inhibition of cellular proliferation, 4 days, Cell Titer Glo, HCT116 MTAP−/−. The following applies: Homo sapiens, HCT-116, 96 h, IC50 bin with Max Inh., read-out: 4 Day Relative Growth Inhibition (MTAP −/−). Format: cell-based. In short, it runs like this:
(§1)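 IC50 derived from blank-corrected ATP luminescence (Cell Titer Glo) expressed relative to within-plate 0.2% DMSO wells. Compound, as a 10-point 3-fold series, was added 24 h after seeding the MTAP+/+ or MTAP−/− HCT116 cells and incubated 4 days at 37° C./5% CO2.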

For another assay, the system named is HCT116 MTAP+/+. In words: Inhibition of cellular proliferation, 4 days, Cell Titer Glo, HCT116 MTAP+/+. Format: cell-based. Conditions: Homo sapiens, HCT-116, 96 h, IC50 bin with Max Inh., read-out: 4 Day Relative Growth Inhibition (MTAP +/+). A digest of the protocol: as §1
For orientation: ATP-based viability assays read luminescence as a measure of living cells.

T1 sequence (P31153 whole entry): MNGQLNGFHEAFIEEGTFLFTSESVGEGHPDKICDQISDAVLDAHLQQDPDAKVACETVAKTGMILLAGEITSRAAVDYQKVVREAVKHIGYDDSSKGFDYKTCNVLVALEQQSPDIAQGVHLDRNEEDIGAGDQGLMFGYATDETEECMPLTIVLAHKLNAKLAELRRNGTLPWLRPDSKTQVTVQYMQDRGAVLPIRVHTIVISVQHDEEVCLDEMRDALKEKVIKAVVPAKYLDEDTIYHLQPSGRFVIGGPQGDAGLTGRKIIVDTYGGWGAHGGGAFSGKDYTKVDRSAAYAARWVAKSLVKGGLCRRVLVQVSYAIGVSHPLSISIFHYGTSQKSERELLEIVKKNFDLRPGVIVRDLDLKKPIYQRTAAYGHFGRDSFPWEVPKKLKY

In the case of `Cn1cc2cc(-n3nc4c(Br)cn(CC5CC5)c4c(-c4ccc(C5CC5)nc4)c3=O)ccc2n1` [Example 238, 7-bromo-5-(cyclopropylmethyl)-4-(6-cyclopropylpyridin-3-yl)-2-(2-methyl-2H-indazol-5-yl)-2,5-dihydro-3H-pyrrolo[3,2-c]pyridazin-3-one], the IC50 on MAT2A homodimer was < 100 nM; in assay [1] it was < 100 nM; in the assay with HCT116 MTAP−/−, < 100 nM; in the assay with HCT116 MTAP+/+, > 1000 nM.
For the compound `CCc1ccc(-c2c(=O)n(-c3ccc4nc(C)n(C)c4c3)nc3ccn(CC4CC4)c23)cn1` [Example 142, 5-(cyclopropylmethyl)-2-(1,2-dimethyl-1H-benzo[d]imidazol-6-yl)-4-(6-ethylpyridin-3-yl)-2,5-dihydro-3H-pyrrolo[3,2-c]pyridazin-3-one], the IC50 on MAT2A homodimer was < 100 nM; in assay [1], < 100 nM; in the assay with HCT116 MTAP−/−, < 100 nM; with HCT116 MTAP+/+, > 1000 nM.
With `Cn1cc2cc(-n3nc4c(C#N)cn(CC5CC5)c4c(-c4ccc([C@H]5CC5(F)F)nc4)c3=O)ccc2n1` [Example 253, (R)-5-(cyclopropylmethyl)-4-(6-(2,2-difluorocyclopropyl)pyridin-3-yl)-2-(2-methyl-2H-indazol-5-yl)-3-oxo-3,5-dihydro-2H-pyrrolo[3,2-c]pyridazine-7-carbonitrile], the IC50 is < 100 nM at MAT2A homodimer, 100 to 1000 nM in assay [1], < 100 nM in the assay with HCT116 MTAP−/− and > 1000 nM with HCT116 MTAP+/+.
As for `[2H]C([2H])([2H])Oc1ccc(-c2c(=O)n(-c3ccc4nn(C)cc4c3)nc3c2n(CC2CC2)c(=O)n3C)cc1` [Example 201, 5-(cyclopropylmethyl)-4-(4-(methoxy-d3)phenyl)-7-methyl-2-(2-methyl-2H-indazol-5-yl)-2,7-dihydro-3H-imidazo[4,5-c]pyridazine-3,6(5H)-dione], the IC50 is < 100 nM at MAT2A homodimer, < 100 nM in assay [1], < 100 nM in the assay on HCT116 MTAP−/− and 100 to 1000 nM in the assay with HCT116 MTAP+/+.
For the compound `Cn1cc2cc(-n3nc4c(C(F)F)cn(CC5CC5)c4c(-c4ccc(C5CC5)nc4)c3=O)ccc2n1` [Example 240, 5-(cyclopropylmethyl)-4-(6-cyclopropylpyridin-3-yl)-7-(difluoromethyl)-2-(2-methyl-2H-indazol-5-yl)-2,5-dihydro-3H-pyrrolo[3,2-c]pyridazin-3-one], the IC50 is < 100 nM at MAT2A homodimer, < 100 nM in assay [1], < 100 nM in the assay with HCT116 MTAP−/− and 100 to 1000 nM in the assay with HCT116 MTAP+/+.
Regarding `Cn1cc2cc(-n3nc4c(C#N)cn(CC5CC5)c4c(-c4ccc(C(F)(F)F)nc4)c3=O)ccc2n1` [Example 119, 5-(cyclopropylmethyl)-2-(2-methyl-2H-indazol-5-yl)-3-oxo-4-(6-(trifluoromethyl)pyridin-3-yl)-3,5-dihydro-2H-pyrrolo[3,2-c]pyridazine-7-carbonitrile], the IC50 at MAT2A homodimer is < 100 nM; in assay [1] it was > 1000 nM; in the assay with HCT116 MTAP−/−, > 1000 nM; in the assay on HCT116 MTAP+/+, > 1000 nM.
